Assay: xn = mol fraction of the nth substance listed
Details: 101 kPa, Liquid; for speed of sound: Sing-around technique in a fixed-path interferometer; for kinematic viscosity: Vibrating wire viscometry; for mass density: Vibrating tube method

CCCCO [butan-1-ol] + OCCCCO
x2 = 0
Details	kinematic viscosity [m2/s]	mass density [kg/m3]	speed of sound [m/s]
293.03 K	–	–	1257
298.02 K	3.24e-06	–	–
298.07 K	–	–	1239.7
298.15 K	–	805.77	–
302.47 K	2.9e-06	–	–
303.15 K	–	801.928	–
303.35 K	–	–	1221.6
308 K	2.53e-06	–	–
308.15 K	–	798.054	–
308.34 K	–	–	1204.8
312.96 K	2.25e-06	–	–
313.15 K	–	794.146	–
313.37 K	–	–	1188
318.15 K	–	790.196	–
318.37 K	–	–	1171.4
318.61 K	1.99e-06	–	–

OCCCCO [1,4-butanediol] + CCCCO
Details	kinematic viscosity [m2/s]	mass density [kg/m3]	speed of sound [m/s]
293.02 K, x1 = 1	–	–	1614.9
293.03 K, x1 = 0.7946	–	–	1537.8
293.05 K, x1 = 0.6478	–	–	1482.1
293.05 K, x1 = 0.9234	–	–	1586.4
293.06 K, x1 = 0.3571	–	–	1375.1
293.06 K, x1 = 0.4979	–	–	1426
293.07 K, x1 = 0.2	–	–	1321
293.08 K, x1 = 0.051	–	–	1272.7
298.01 K, x1 = 1	6.99e-05	–	–
298.06 K, x1 = 0.4592	1.56e-05	–	–
298.06 K, x1 = 1	–	–	1602.6
298.07 K, x1 = 0.1507	5.44e-06	–	–
298.07 K, x1 = 0.9374	6e-05	–	–
298.08 K, x1 = 0.2	–	–	1304.8
298.08 K, x1 = 0.5676	2.18e-05	–	–
298.08 K, x1 = 0.6478	–	–	1468.3
298.08 K, x1 = 0.7946	–	–	1524.7
298.09 K, x1 = 0.3571	–	–	1359.7
298.09 K, x1 = 0.7435	3.62e-05	–	–
298.1 K, x1 = 0.051	–	–	1255.7
298.1 K, x1 = 0.4979	–	–	1411.3
298.1 K, x1 = 0.6576	2.84e-05	–	–
298.1 K, x1 = 0.8108	4.34e-05	–	–
298.1 K, x1 = 0.9234	–	–	1573.9
298.14 K, x1 = 0.2986	9.22e-06	–	–
298.15 K, x1 = 0.1507	–	837.834	–
298.15 K, x1 = 0.2986	–	869.164	–
298.15 K, x1 = 0.4592	–	902.986	–
298.15 K, x1 = 0.5676	–	925.394	–
298.15 K, x1 = 0.6576	–	943.952	–
298.15 K, x1 = 0.7435	–	961.447	–
298.15 K, x1 = 0.8108	–	974.991	–
298.15 K, x1 = 0.9374	–	1000.24	–
298.15 K, x1 = 1	–	1012.72	–
302.51 K, x1 = 1	5.63e-05	–	–
302.99 K, x1 = 0.9374	4.76e-05	–	–
303 K, x1 = 0.6576	2.33e-05	–	–
303.01 K, x1 = 0.1507	4.68e-06	–	–
303.01 K, x1 = 0.5676	1.8e-05	–	–
303.01 K, x1 = 0.7435	2.93e-05	–	–
303.01 K, x1 = 0.8108	3.49e-05	–	–
303.04 K, x1 = 0.4592	1.3e-05	–	–
303.06 K, x1 = 0.2986	7.83e-06	–	–
303.15 K, x1 = 0.1507	–	834.13	–
303.15 K, x1 = 0.2986	–	865.589	–
303.15 K, x1 = 0.4592	–	899.553	–
303.15 K, x1 = 0.5676	–	922.055	–
303.15 K, x1 = 0.6576	–	940.685	–
303.15 K, x1 = 0.7435	–	958.245	–
303.15 K, x1 = 0.8108	–	971.848	–
303.15 K, x1 = 0.9374	–	997.175	–
303.15 K, x1 = 1	–	1009.69	–
303.3 K, x1 = 1	–	–	1590.1
303.36 K, x1 = 0.2	–	–	1287.8
303.36 K, x1 = 0.4979	–	–	1396.1
303.36 K, x1 = 0.7946	–	–	1511
303.36 K, x1 = 0.9234	–	–	1561
303.37 K, x1 = 0.051	–	–	1238
303.37 K, x1 = 0.3571	–	–	1343.7
303.39 K, x1 = 0.6478	–	–	1453.8
308.06 K, x1 = 1	4.37e-05	–	–
308.15 K, x1 = 0.1507	–	830.397	–
308.15 K, x1 = 0.2986	–	861.995	–
308.15 K, x1 = 0.4592	–	896.107	–
308.15 K, x1 = 0.5676	–	918.702	–
308.15 K, x1 = 0.6576	–	937.408	–
308.15 K, x1 = 0.7435	–	955.036	–
308.15 K, x1 = 0.8108	–	968.692	–
308.15 K, x1 = 0.9374	–	994.107	–
308.15 K, x1 = 1	–	1006.66	–
308.16 K, x1 = 0.9374	3.79e-05	–	–
308.17 K, x1 = 0.6576	1.9e-05	–	–
308.18 K, x1 = 0.4592	1.09e-05	–	–
308.19 K, x1 = 0.8108	2.8e-05	–	–
308.22 K, x1 = 0.1507	3.96e-06	–	–
308.22 K, x1 = 0.2986	6.63e-06	–	–
308.23 K, x1 = 0.5676	1.48e-05	–	–
308.24 K, x1 = 0.7435	2.37e-05	–	–
308.32 K, x1 = 0.7946	–	–	1498.4
308.32 K, x1 = 1	–	–	1578.3
308.33 K, x1 = 0.051	–	–	1221.5
308.33 K, x1 = 0.9234	–	–	1548.9
308.35 K, x1 = 0.3571	–	–	1328.7
308.35 K, x1 = 0.4979	–	–	1381.9
308.36 K, x1 = 0.2	–	–	1272
308.38 K, x1 = 0.6478	–	–	1440.3
313.12 K, x1 = 1	3.51e-05	–	–
313.15 K, x1 = 0.1507	–	826.639	–
313.15 K, x1 = 0.2986	–	858.379	–
313.15 K, x1 = 0.4592	–	892.64	–
313.15 K, x1 = 0.5676	–	915.331	–
313.15 K, x1 = 0.6576	–	934.116	–
313.15 K, x1 = 0.7435	–	951.814	–
313.15 K, x1 = 0.8108	–	965.521	–
313.15 K, x1 = 0.9374	–	991.027	–
313.15 K, x1 = 1	–	1003.63	–
313.19 K, x1 = 0.9374	3.06e-05	–	–
313.2 K, x1 = 0.6757	1.57e-05	–	–
313.21 K, x1 = 0.5676	1.24e-05	–	–
313.23 K, x1 = 0.4592	9.16e-06	–	–
313.23 K, x1 = 0.7435	1.95e-05	–	–
313.23 K, x1 = 0.8108	2.29e-05	–	–
313.26 K, x1 = 0.1507	3.36e-06	–	–
313.29 K, x1 = 0.2986	5.65e-06	–	–
313.32 K, x1 = 0.051	–	–	1204.9
313.33 K, x1 = 0.7946	–	–	1485.7
313.35 K, x1 = 1	–	–	1566.5
313.36 K, x1 = 0.3571	–	–	1313.8
313.36 K, x1 = 0.9234	–	–	1536.8
313.37 K, x1 = 0.2	–	–	1256.2
313.37 K, x1 = 0.4979	–	–	1367.6
313.39 K, x1 = 0.6478	–	–	1426.9
318.15 K, x1 = 0.1507	–	822.854	–
318.15 K, x1 = 0.2986	–	854.74	–
318.15 K, x1 = 0.4592	–	889.157	–
318.15 K, x1 = 0.5676	–	911.95	–
318.15 K, x1 = 0.6576	–	930.812	–
318.15 K, x1 = 0.7435	–	948.578	–
318.15 K, x1 = 0.8108	–	962.345	–
318.15 K, x1 = 0.9374	–	987.943	–
318.15 K, x1 = 1	–	1000.58	–
318.29 K, x1 = 0.051	–	–	1188.5
318.3 K, x1 = 0.7946	–	–	1473.1
318.35 K, x1 = 0.3571	–	–	1299.1
318.35 K, x1 = 0.4979	–	–	1353.5
318.35 K, x1 = 1	–	–	1554.8
318.36 K, x1 = 0.9234	–	–	1525
318.38 K, x1 = 0.2	–	–	1240.6
318.38 K, x1 = 0.6478	–	–	1413.6
318.56 K, x1 = 0.8108	1.87e-05	–	–
318.72 K, x1 = 1	2.79e-05	–	–
318.73 K, x1 = 0.9374	2.45e-05	–	–
318.74 K, x1 = 0.6575	1.29e-05	–	–
318.75 K, x1 = 0.5676	1.03e-05	–	–
318.75 K, x1 = 0.7435	1.59e-05	–	–
318.76 K, x1 = 0.4592	7.65e-06	–	–
318.8 K, x1 = 0.1507	2.79e-06	–	–
318.81 K, x1 = 0.2986	4.76e-06	–	–

— the NIST ThermoML archive (doi:10.1016/j.jct.2009.09.013)
